According to article PMC3805573, “Methylglyoxal Evokes Pain by Stimulating TRPA1” (PLoS ONE, 2013):

Key:
mouse TRPA1 = molecular target: T1, mouse TRPA1 (Mus musculus, UniProt Q8BLA8); test: [Ca2+]i-responses in CHO cells expressing mouse TRPA1; format: cell-based; conditions: CHO cells expressing mouse TRPA1, extracellular application; read-out: EC50, increases in [Ca2+]i
T1 construct: expressed in transfected cells; host or cells: CHO cells
Method: (§1) Untransfected CHO cells and CHO cells expressing mouse or human TRPA1 were grown in MEM Glutamax or AQ medium supplemented with penicillin (100 U/ml), streptomycin (100 µg/ml), and FCS (10%). Plasmids encoding mutated TRPA1 channels were kindly provided by Dr. Ardem Patapoutian. All media, serum and antibiotics were from Invitrogen (Paisley, UK) or Sigma (Poole, UK).
(§2) Cells were loaded with 2 µM Fura-2 AM (Molecular Probes, Paisley, UK) in the presence of 1 mM probenecid for ∼1 hr. The experiments were performed in a physiological saline solution containing (in mM) 140 NaCl, 5 KCl, 10 glucose, 10 HEPES, 2 CaCl2, and 1 MgCl2, buffered to pH 7.4 with NaOH. Compounds were applied to cells by local continuous microperfusion of solution through a fine tube placed in close proximity of the cells studied. Images of a group of cells were captured every 2 sec using 340 and 380 nm excitation wavelengths with emission measured at 520 nm with a microscope based imaging system (PTI, New Jersey). […]
(§3) Changes in intracellular calcium ([Ca^2+]i) in response to agonists were determined in TRPA1 expressing CHO cells and MDCK cells using a Flexstation 3 (Molecular Devices). […] Basal emission ratios (340 nm/380 nm) were measured and changes in ratio determined at various times after compound addition.

human TRPA1 = molecular target: T2, human TRPA1 (Homo sapiens, UniProt O75762); test: [Ca2+]i-responses in CHO cells expressing human TRPA1; format: cell-based; conditions: CHO cells expressing human TRPA1, extracellular application; read-out: EC50, increases in [Ca2+]i
T2 construct: expressed in transfected cells; host or cells: CHO cells
T2 sequence (O75762 whole entry): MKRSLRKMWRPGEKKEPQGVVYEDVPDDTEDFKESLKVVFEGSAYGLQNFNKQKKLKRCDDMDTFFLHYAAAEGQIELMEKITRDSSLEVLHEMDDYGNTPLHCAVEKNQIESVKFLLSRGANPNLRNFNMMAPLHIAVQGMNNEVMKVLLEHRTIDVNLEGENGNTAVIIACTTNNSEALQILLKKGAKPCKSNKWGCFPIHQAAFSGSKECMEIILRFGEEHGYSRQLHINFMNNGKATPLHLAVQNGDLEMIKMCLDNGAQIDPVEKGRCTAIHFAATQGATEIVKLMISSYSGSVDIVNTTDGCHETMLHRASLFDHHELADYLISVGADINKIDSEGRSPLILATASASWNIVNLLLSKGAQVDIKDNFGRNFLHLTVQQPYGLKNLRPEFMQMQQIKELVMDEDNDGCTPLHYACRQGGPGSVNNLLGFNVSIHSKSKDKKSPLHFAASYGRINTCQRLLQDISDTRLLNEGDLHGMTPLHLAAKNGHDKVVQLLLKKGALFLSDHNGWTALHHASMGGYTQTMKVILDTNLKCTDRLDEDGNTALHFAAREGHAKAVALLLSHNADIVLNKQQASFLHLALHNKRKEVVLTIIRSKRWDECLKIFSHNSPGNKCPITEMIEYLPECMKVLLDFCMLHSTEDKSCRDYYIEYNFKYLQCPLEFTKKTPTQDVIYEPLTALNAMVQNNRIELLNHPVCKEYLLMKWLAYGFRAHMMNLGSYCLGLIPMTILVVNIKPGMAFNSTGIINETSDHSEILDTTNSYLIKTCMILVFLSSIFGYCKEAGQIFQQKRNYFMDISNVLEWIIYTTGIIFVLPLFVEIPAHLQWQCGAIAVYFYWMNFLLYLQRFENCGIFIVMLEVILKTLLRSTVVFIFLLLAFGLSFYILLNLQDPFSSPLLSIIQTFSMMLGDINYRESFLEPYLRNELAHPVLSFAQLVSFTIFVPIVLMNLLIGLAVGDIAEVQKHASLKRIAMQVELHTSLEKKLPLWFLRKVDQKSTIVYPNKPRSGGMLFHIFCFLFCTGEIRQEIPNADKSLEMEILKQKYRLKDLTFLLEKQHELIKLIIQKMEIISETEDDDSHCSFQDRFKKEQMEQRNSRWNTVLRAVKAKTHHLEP
Method: as §1, §2, §3

MDCK cells = test: [Ca2+]i-measurements in MDCK cells; format: cell-based, Canine
Method: MDCK cells were grown in DMEM (Invitrogen) supplemented with 5% fetal bovine serum, 100 U/ml penicillin and 100 µg/ml streptomycin. […] The experiments were performed in a physiological saline solution containing (in mM) 140 NaCl, 5 KCl, 10 glucose, 10 HEPES, 2 CaCl2, and 1 MgCl2, buffered to pH 7.4 with NaOH. Compounds were applied to cells by local continuous microperfusion of solution through a fine tube placed in close proximity of the cells studied. […] Analyses of emission intensity ratios at 340 nm/380 nm excitation (R, in individual cells) were performed using the ImageMaster suite of software. […] Cells grown in 96 well black walled plates (Costar, Tewksbury, MA) were loaded with Fura 2-AM in the presence of 1 mM probenecid at 37°C for 1–1.5 hours and assays were carried out at 25°C. Basal emission ratios (340 nm/380 nm) were measured and changes in ratio determined at various times after compound addition.

DRG neurons = test: [Ca2+]i-responses in cultured DRG neurons; format: cell-based, mice
Method: DRG neurons were prepared from adult male or female mice using methods described previously. Isolated neurons were maintained in MEM AQ (5.6 mM glucose) supplemented with 10% fetal bovine serum, 100 U/ml penicillin, 100 µg/ml streptomycin and 50 ng/ml NGF (Promega, Southampton, UK) for less than 24 hours before experimentation.
(§4) Cells were loaded with 2 µM Fura-2 AM (Molecular Probes, Paisley, UK) in the presence of 1 mM probenecid for ∼1 hr. The experiments were performed in a physiological saline solution containing (in mM) 140 NaCl, 5 KCl, 10 glucose, 10 HEPES, 2 CaCl2, and 1 MgCl2, buffered to pH 7.4 with NaOH. Compounds were applied to cells by local continuous microperfusion of solution through a fine tube placed in close proximity of the cells studied. Images of a group of cells were captured every 2 sec using 340 and 380 nm excitation wavelengths with emission measured at 520 nm with a microscope based imaging system (PTI, New Jersey). Analyses of emission intensity ratios at 340 nm/380 nm excitation (R, in individual cells) were performed using the ImageMaster suite of software.

mTRPA1 K712Q = molecular target: T3, mTRPA1 K712Q (Mus musculus, UniProt Q8BLA8, K712Q); test: [Ca2+]i-responses of mTRPA1 K712Q in CHO cells; format: cell-based; conditions: MG 2 mM
T3 construct: expressed in transfected cells; host or cells: CHO cells
T3 sequence (Q8BLA8 whole entry K712Q): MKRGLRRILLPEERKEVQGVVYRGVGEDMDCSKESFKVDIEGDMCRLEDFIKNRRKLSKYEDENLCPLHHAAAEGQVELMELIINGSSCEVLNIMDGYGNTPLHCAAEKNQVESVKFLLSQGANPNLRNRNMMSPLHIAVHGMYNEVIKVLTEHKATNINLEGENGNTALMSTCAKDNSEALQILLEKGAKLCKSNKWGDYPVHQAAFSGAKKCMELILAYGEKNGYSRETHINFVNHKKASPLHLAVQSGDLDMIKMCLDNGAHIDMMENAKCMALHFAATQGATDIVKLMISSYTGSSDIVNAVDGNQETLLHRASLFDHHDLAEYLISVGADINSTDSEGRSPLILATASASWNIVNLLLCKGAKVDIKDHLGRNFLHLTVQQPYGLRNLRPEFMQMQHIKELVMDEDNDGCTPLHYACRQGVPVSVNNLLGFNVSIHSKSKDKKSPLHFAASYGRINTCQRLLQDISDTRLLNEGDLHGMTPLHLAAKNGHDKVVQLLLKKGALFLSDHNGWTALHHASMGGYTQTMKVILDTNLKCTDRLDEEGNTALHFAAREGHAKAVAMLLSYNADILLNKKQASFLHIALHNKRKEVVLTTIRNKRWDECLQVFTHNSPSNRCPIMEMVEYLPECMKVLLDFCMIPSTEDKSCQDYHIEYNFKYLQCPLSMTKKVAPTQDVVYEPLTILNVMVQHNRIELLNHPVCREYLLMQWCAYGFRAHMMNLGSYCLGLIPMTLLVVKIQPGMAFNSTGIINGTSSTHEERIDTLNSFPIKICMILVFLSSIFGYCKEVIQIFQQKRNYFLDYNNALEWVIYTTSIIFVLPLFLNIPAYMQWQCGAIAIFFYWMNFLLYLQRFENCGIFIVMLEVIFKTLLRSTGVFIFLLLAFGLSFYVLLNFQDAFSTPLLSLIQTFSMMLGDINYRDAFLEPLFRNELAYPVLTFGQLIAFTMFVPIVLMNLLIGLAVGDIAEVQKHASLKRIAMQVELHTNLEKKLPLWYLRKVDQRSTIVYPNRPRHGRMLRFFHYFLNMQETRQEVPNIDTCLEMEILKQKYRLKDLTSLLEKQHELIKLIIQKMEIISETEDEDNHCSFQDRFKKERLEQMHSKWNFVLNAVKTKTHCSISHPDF
Method: as §1, §4

T1 sequence (Q8BLA8 whole entry): as the sequence (Q8BLA8 whole entry K712Q) above, with Q712K counted along it

EC50 (mouse TRPA1): 900 ± 100 µM
EC50 (human TRPA1): 700 ± 200 µM
amplitude of [Ca2+]i-responses in mTRPA1 K712Q compared to WT mTRPA1 (mTRPA1 K712Q): significantly reduced
Compound: CC(=O)C=O [MG, methylglyoxal]
[Ca2+]i-influx response (MDCK cells; 5 mM): evoked [Ca^2+]i-influx responses
EC50 (MDCK cells; read-out: EC50, [Ca2+]i-responses): 2200 ± 400 µM
capsaicin-sensitive DRG neurons with [Ca2+]i-responses (DRG neurons; neurons from Trpa1+/+ mice (240 of 333)): 72%
DRG neurons with [Ca2+]i-responses (DRG neurons; neurons from Trpa1-/- mice (1 of 322)): 0%
